Test results published in the OPERA property sets (Mansouri et al. 2018).

SMILES | logP
Nc1n[nH]c(-c2ccnc(NCCO)c2)n1 | 0.24
COCCNc1cc(-c2nnc(N)[nH]2)ccn1 | 0.94
Nc1nc(-c2ccnc(NCCCc3ccccc3)c2)n[nH]1 | 3.05
C=CCNc1cc(-c2nc[nH]n2)ccn1 | 1.26
CCCNc1cc(-c2nnc(N)[nH]2)ccn1 | 1.61
CCCCCCCCCCNc1cc(-c2nnc(N)[nH]2)ccn1 | 4.07
Nc1cc(-c2nnc(N)[nH]2)ccn1 | 0.11

Results, then the compound that gave them:

logP | SMILES
2.69 | Cc1ccc(CNc2cc(-c3n[nH]c(N)n3)ccn2)cc1
2.63 | Nc1nc(-c2ccnc(NCCc3ccccc3)c2)n[nH]1
1.13 | CCNc1cc(-c2nc(N)n[nH]2)ccn1
3.3 | CCCCCCNc1cc(-c2n[nH]c(N)n2)ccn1
2.15 | CCCCNc1cc(-c2n[nH]c(N)n2)ccn1
0.69 | CNc1cc(-c2n[nH]c(N)n2)ccn1
